The NIST ThermoML archive (doi:10.1016/j.fluid.2014.08.014)
Numbers after ± are expanded uncertainties.

Test: refractive index (Na D-line) (dimensionless)
Conditions: 293.15 K; 101.33 kPa; Liquid; Standard Abbe refractometry

Structure (SMILES) | refractive index
CC(C)CO [2-methyl-1-propanol] | 1.3955 ± 0.0005
CC(C)(C)O [2-methylpropan-2-ol] | 1.3881 ± 0.0005
CCCCOC(C)=O [butyl ethanoate] | 1.3951 ± 0.0005

Next, values leading:

refractive index | Structure (SMILES)
1.3616 ± 0.0005 | CCO [ethanol]
1.3328 ± 0.0005 | O [water]
